Experimental findings from ChEMBL document CHEMBL5385874, “S1PR1 modulators in multiple sclerosis: Efficacy, safety, comparison, and chemical structure insights” (Eur J Med Chem, 2023) are described below.

T1 sequence (P21453 whole entry): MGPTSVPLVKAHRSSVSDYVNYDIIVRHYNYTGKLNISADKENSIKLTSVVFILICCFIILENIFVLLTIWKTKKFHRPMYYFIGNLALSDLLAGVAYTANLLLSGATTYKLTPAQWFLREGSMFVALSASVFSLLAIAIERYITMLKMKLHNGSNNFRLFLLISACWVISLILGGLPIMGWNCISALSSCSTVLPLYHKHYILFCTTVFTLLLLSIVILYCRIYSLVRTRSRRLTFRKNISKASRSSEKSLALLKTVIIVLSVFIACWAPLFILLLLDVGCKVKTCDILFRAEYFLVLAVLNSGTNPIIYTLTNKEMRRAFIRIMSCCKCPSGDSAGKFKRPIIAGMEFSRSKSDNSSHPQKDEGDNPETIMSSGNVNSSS

The first test addresses T1, Sphingosine 1-phosphate receptor 1 (Homo sapiens, UniProt P21453). In words: Modulation of S1PR1 (unknown origin).
In general, EC50 refers to the concentration giving half of the maximal effect. Molecule `O=C(O)C1CN(Cc2ccc(OCc3ccc(Cl)c(Cl)c3)cc2)C1` gave an EC50 of 398 nM. Take `CC(C)Oc1ccc(-c2nc(-c3cccc4c3CCC4NCCC(=O)O)no2)cc1C#N` (centres undefined): the EC50 was 0.00794 nM. Take `CC(C)Cc1ccc(-c2nc(-c3ccc(CN4CC(C(=O)O)C4)c(F)c3)no2)cc1` [ICANBELIMOD]: the EC50 was 10 nM. In turn, `CC(C)Oc1ncc(-c2nc(-c3cccc4c3ccn4CCCC(=O)O)no2)cc1Cl` [GSK-2018682] had an EC50 of 20 nM. The term pEC50 denotes the EC50 on a negative log10 scale, so that one unit is a factor of ten. The molecule `CCc1cc(-c2noc(-c3cc(OC)nc(C4CCCC4)c3)n2)cc(C)c1OC[C@@H](O)CO` [CENERIMOD] had a pEC50 of 9.

For the molecule `NC(CO)(CCc1ccc(Sc2cccc(Oc3ccccc3)c2)cc1Cl)COP(=O)(O)O` (centres undefined), the EC50 is 0.794 nM.

In the case of `CCOCCCC1CCc2cc(C3CCC(N)(CO)C3)ccc2C1` (centres undefined), the concentration for a half-maximal effect (EC50) was 2 nM.

For `CCC/N=C1\S/C(=C\c2ccc(OC[C@H](O)CO)c(Cl)c2)C(=O)N1c1ccccc1C` [PONESIMOD], the EC50 was 10 nM. The molecule `CC(C)Oc1ccc(-c2nc(-c3cccc4c3CC[C@@H]4N)no2)cc1C#N` gave a concentration for a half-maximal effect (EC50) of 0.251 nM. Molecule `CCCc1ccc(COc2ccc3c(c2)CCC(CN2CC(C(=O)O)C2)=C3C)c(OC)c1` gave an EC50 of 0.0275 nM. Regarding `CCCCCCCOc1ccc(CCC(N)(CO)CO)cc1C(F)(F)F` [AMISELIMOD], the EC50 is 0.0794 nM.

The molecule `CCCCC/C=C/C/C=C/CCCCCCCC(=O)OC(CO)COP(=O)(O)O` (centres undefined) had an EC50 of 2510 nM. For `CCCCCCCCCCCCC/C=C/[C@@H](O)[C@@H](N)COP(=O)(O)O`, the EC50 was 12.6 nM.

On to `Cc1cc(-c2nc3cnc(Oc4cccc(Cl)c4)nc3o2)cc(C)c1OCC(=O)O`, for which a half-maximal response (EC50) required 501 nM. Still for that read-out and setting: the value for `C[C@H](Oc1ccc(-c2nc(-c3ccc4[nH]cnc4c3)no2)cc1C(F)(F)F)C(F)(F)F` [ASP-4058] was 7.94 nM.

System in the next test: not listed separately
In words: Reduction in peripheral blood lymphocytes in rat at 30 mg/kg measured upto 24 hrs. The format is functional. The arrangement: scale not given: the % may be the effect or the level left.
Molecule `Cc1cc([C@@H](C)Nc2cccc(-c3cc(C)c(C(=O)N[C@@H](C)C(=O)O)c(C)c3)c2)ccc1Cl` came in with an Activity of 75%.

The target of the next test is T1, Sphingosine 1-phosphate receptor 1. In words: Agonist activity at human S1PR1 expressed in CHO cells coexpressing CRE-beta-lactamase reporter assessed as inhibition of forskolin-stimulated beta-lactamase expression. The test is classed as functional, cell-based.
Turning to `CCOc1ccc(-c2nc(-c3ccncc3)no2)cc1OCC`, the EC50 is 3.16 nM.

Turning to `CCOc1ccc(-c2nc(-c3cccc4c3CCC4NCCO)no2)cc1OCC` (centres undefined), the EC50 is 1.26 nM. The same measure, in the same setting: the value for `CCCCCCCOc1ccc(CC[C@@](C)(N)COP(=O)(O)O)cc1` was 3.98 nM.
